Measurements taken from patent publication US12728116B2, “Methods of treating multiple sclerosis” (Vanda Pharmaceuticals Inc., priority 2021, dated 2026).
Values joined by “and” are separate entries in the source; they are usually repeats but may differ in a detail not shown here. Equal values may be shown once.

Legend:
[1] = tested on: adult subjects with relapsing MS; experiment: Combined unique active lesions (CUAL) on brain MRI from baseline to Week 108; type: in vivo, human; details: for CUAL mean estimate (Lesions per year), negative binomial regression: ponesimod 20 mg, teriflunomide 14 mg; for Total number of lesions (CUAL): total time 1072 / 1067 years; for Raw mean lesions/year (CUAL): baseline to week 108
Procedure: (§1) Secondary efficacy variables and testing strategy: Four secondary efficacy endpoints were analyzed as per the statistical testing strategy outlined in FIG. 1. • Change from baseline to Week 108 in fatigue-related symptoms as measured by the symptoms domain of the FSIQ-RMS patient-reported outcome [Fatigue] • Cumulative number of combined unique active lesions from baseline to Week 108 on brain MRI [CUALs] • Time to first 12-week confirmed disability accumulation (CDA) from baseline to EOS on Expanded Disability Status Scale (EDSS) [12-week CDA] • Time to first 24-week CDA from baseline to EOS on EDSS [24-week CDA]
CUAL are new Gd+T1 lesions plus new or enlarging T2 lesions (without double-counting of lesions).
MRI scans were performed at Visits 2 (Baseline). 10 (Week 60), and 14 (EOT) and at any unscheduled visit (U1, U2, etc.). If applicable, MRI scans also were performed at the corresponding visits in the PTOP (Visits 10A and 14A). Testing at all visits were performed up to 7 days prior to or after the visit date.
T1-weighted imaging before and after i.v. administration of 0.1 mmol/kg body weight (=0.2 mL/kg) of Gd as well as PD-T2-weighted imaging was performed. Gd may cause nausea and vomiting and in very rare cases allergic reactions that could require immediate anti-anaphylactic therapy (such as steroids, epinephrine/adrenaline, etc.).
ARR differences and mean number of CUALs were examined using a negative binomial regression model with adjusting for the log time in the study (in years) as an offset.

[2] = tested on: adult subjects with relapsing MS; experiment: Time to first 12-week / 24-week confirmed disability accumulation (CDA) on EDSS; type: in vivo, human; details: for Subjects with a 12-week CDA up to EOS / Subjects with a 24-week CDA up to EOS: ponesimod 20 mg, teriflunomide 14 mg
Procedure: as §1
(§2) A 12-week CDA is an increase of at least 1.5 in EDSS for subjects with a baseline EDSS score of 0.0 or an increase of at least 1.0 in EDSS for subjects with a baseline EDSS score of 1.0 to 5.0, or an increase of at least 0.5 in EDSS for subjects with a baseline EDSS score≥5.5 which is to be confirmed after 12 weeks.
All EDSS measurements (with or without relapse, at a scheduled or unscheduled visit) were used to determine the onset of disability accumulation. However, EDSS scores used for confirmation of disability accumulation were obtained at a scheduled visit (i.e., unscheduled visits cannot be used as confirmatory visits) outside any ongoing relapse. In this context, relapse duration is defined as period between start and end dates if available and limited to 90 days from onset if end date is not available or duration is longer than 90 days.
In order to confirm that the EDSS increase is persistent, all EDSS measurements between the onset and the 12-week EDSS confirmation (minus 7-day visit time-window) need to show an increase in EDSS, meeting the criteria for accumulation of disability as defined above.
as §2, with “24-week” for “12-week”, “24” for “12”
In order to confirm that the EDSS increase is persistent, all EDSS measurements between the onset and the 24-week EDSS confirmation (minus 7-day visit time-window) need to show an increase in EDSS, meeting the criteria for accumulation of disability as defined above.

[3] = tested on: adult subjects with relapsing MS; experiment: Premature treatment discontinuation; type: in vivo; details: for Subjects discontinued due to AEs or tolerability related reasons: ponesimod 20 mg, teriflunomide 14 mg
Procedure: A total of 1468 subjects were screened. Of those, 1133 subjects were randomized (567 to ponesimod 20 mg and 566 to teriflunomide 14 mg) across 162 sites in 28 countries, and 1131 subjects received at least one dose of study drug. The disposition of subjects is summarized in Table 1 and a summary of reasons (primary reason) for treatment discontinuation are shown in Table 2. Overall treatment and study discontinuation were balanced across both treatment arms. A total of 6.5% and 2.5% of the subjects discontinued due to AEs or tolerability related reasons in ponesimod 20 mg and teriflunomide 14 mg, respectively, while 1.9% and 4.3% discontinued due to efficacy related reasons. There were 2 deaths reported during the study—both on teriflunomide 14 mg.

[4] = baseline to Week 108, Full Analysis Set
[5] = ponesimod 20 mg vs teriflunomide 14 mg, not statistically significant

Row | SMILES | CUAL treatment effect (Rate Ratio), ponesimod vs. teriflunomide [1, 4] | CUAL mean estimate (Lesions per year), negative binomial regression [1, 4] | Total number of lesions (CUAL) ([1]; baseline to Week 108) | Raw mean lesions/year (CUAL) [1] | CUALs, benefit compared with teriflunomide in subgroups ([1]; patients with EDSS≤3 and treatment-naïve patients) | Reduction of number of CUALs between baseline and week 108 compared to teriflunomide ([1]; ponesimod 20 mg vs teriflunomide 14 mg) | Time to first 24-week CDA, hazard ratio ponesimod vs teriflunomide ([2]; Full Analysis Set, exploratory) | Time to first 12-week CDA, hazard ratio ponesimod vs teriflunomide ([2]; Full Analysis Set, stratified Cox regression) | Reduction of risk of 12-week CDA compared to teriflunomide [2, 5] | Reduction of risk of 24-week CDA compared to teriflunomide [2, 5] | Subjects with a 12-week CDA up to EOS [2] | Subjects with a 24-week CDA up to EOS ([2]; exploratory) | Premature discontinuation: Physician decision, Adverse event, % ([3]; Safety Set) | Premature discontinuation: Subject decision, Tolerability related, % ([3]; Safety Set) | Subjects discontinued due to AEs or tolerability related reasons [3] | Premature discontinuation: Death, % ([3]; Safety Set)
1 | CCC/N=C1\S/C(=C\c2ccc(OC[C@H](O)CO)c(Cl)c2)C(=O)N1c1ccccc1C [Ponesimod, (R)-5-[3-chloro-4-(2,3-dihydroxy-propoxy)-benz[Z]ylidene]-2-([Z]-propylimino)-3-o-tolyl-thiazolidin-4-one] | 0.44 and 0.444 | 1.405 Lesions per year | 1671 | 1.559 lesions/year | benefited from ponesimod compared with teriflunomide | 56% | 0.84 | 0.83 | 17% | 16% | 10.1% | 8.1% | (5.1) % | (1.4) % | 6.5% | 
2 | C/C(O)=C(\C#N)C(=O)Nc1ccc(C(F)(F)F)cc1 [Teriflunomide, reference compound] |  | 3.164 Lesions per year | 3714 | 3.481 lesions/year |  |  |  |  |  |  | 12.4% | 9.9% | (1.6) % | (0.9) % | 2.5% | (0.4) %
